Assay results as given in PubChem BioAssay AID248 (DTP/NCI, 2004).
“And” between values parts separate entries of the source, which are not always exact repeats. Equal values may be shown once. Toxic doses and inconclusive results are not listed. No stated cut-off is given here; in the data, active means T/C of 150% or more; inactive means T/C below 125%.

Tested on: L1210 leukemia ip in BDF1 mice, survival T/C
Test: NCI In Vivo Anticancer Drug Screen. Data for tumor model L1210 Leukemia (intraperitoneal) in B6D2F1 (BDF1) mice
Details: endpoint: mean survival time, higher = longer survival
Procedure, shortened: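 Each compound was tested against a transplantable tumor grown in mice. The endpoint was survival, with treated animals benchmarked against vehicle controls as a simple ratio.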

[1] = dose: 100.0 mg/kg/injection, schedule: Q01DX001 (ip), vehicle: saline with Tween-80
[2] = dose: 200.0 mg/kg/injection, schedule: Q01DX001 (ip), vehicle: saline with Tween-80
[3] = dose: 400.0 mg/kg/injection, schedule: Q01DX001 (ip), vehicle: saline with Tween-80
[4] = dose: 100.0 mg/kg/injection, schedule: Q01DX009 (ip), vehicle: saline with Tween-80
[5] = dose: 200.0 mg/kg/injection, schedule: Q01DX009 (ip), vehicle: saline with Tween-80
[6] = dose: 100.0 mg/kg/injection, schedule: Q01DX001 (ip), vehicle: carboxymethylcellulose (CMC)
[7] = dose: 200.0 mg/kg/injection, schedule: Q01DX001 (ip), vehicle: carboxymethylcellulose (CMC)
[8] = dose: 400.0 mg/kg/injection, schedule: Q01DX001 (ip), vehicle: carboxymethylcellulose (CMC)
[9] = dose: 100.0 mg/kg/injection, schedule: Q04DX003 (ip), vehicle: saline
[10] = dose: 200.0 mg/kg/injection, schedule: Q04DX003 (ip), vehicle: saline
[11] = dose: 400.0 mg/kg/injection, schedule: Q04DX003 (ip), vehicle: saline
[12] = dose: 100.0 mg/kg/injection, schedule: Q04DX003 (ip), vehicle: Klucel (hydroxypropylcellulose) (HPC)
[13] = dose: 200.0 mg/kg/injection, schedule: Q04DX003 (ip), vehicle: Klucel (hydroxypropylcellulose) (HPC)
[14] = dose: 400.0 mg/kg/injection, schedule: Q04DX003 (ip), vehicle: Klucel (hydroxypropylcellulose) (HPC)
[15] = dose: 100.0 mg/kg/injection, schedule: Q01DX001 (ip), vehicle: saline
[16] = dose: 200.0 mg/kg/injection, schedule: Q01DX001 (ip), vehicle: saline
[17] = dose: 400.0 mg/kg/injection, schedule: Q01DX001 (ip), vehicle: saline
[18] = dose: 100.0 mg/kg/injection, schedule: Q04DX003 (ip), vehicle: saline with Tween-80
[19] = dose: 200.0 mg/kg/injection, schedule: Q04DX003 (ip), vehicle: saline with Tween-80
[20] = dose: 400.0 mg/kg/injection, schedule: Q04DX003 (ip), vehicle: saline with Tween-80
[21] = dose: 400.0 mg/kg/injection, schedule: Q01DX009 (ip), vehicle: saline with Tween-80

Measured: T/C

Fc1c(F)c(F)c([Si](c2c(F)c(F)c(F)c(F)c2F)(c2c(F)c(F)c(F)c(F)c2F)c2c(F)c(F)c(F)c(F)c2F)c(F)c1F
inactive: [1] 96 % of control | [2] 91 % of control | [3] 86 % of control

Cc1[nH]cnc1C(c1ccccc1)c1ccccc1
inactive: [1] 108 % of control | [2] 100 % of control

C=CCC1CC2CC(C1C)C2(C)C (centres undefined)
inactive: dose: 50.0 mg/kg/injection, schedule: Q01DX009 (ip), vehicle: saline with Tween-80 93 % of control | [4] 101 % of control | [5] 93 % of control

Cn1cnc(/C(N)=N\O)c1N
inactive: dose: 25.0 mg/kg/injection, schedule: Q01DX005 (ip), vehicle: saline 102 % of control | dose: 50.0 mg/kg/injection, schedule: Q01DX005 (ip), vehicle: saline 113 % of control | dose: 100.0 mg/kg/injection, schedule: Q01DX005 (ip), vehicle: saline 107 % of control

COC1OCC(NC(=O)C(F)(F)F)C(OC(C)=O)C1OC(C)=O (centres undefined)
inactive: dose: 50.0 mg/kg/injection, schedule: Q01DX001 (ip), vehicle: carboxymethylcellulose (CMC) 94 % of control | [6] 100 % of control | [7] 105 % of control | [8] 100 % of control

O=C(Nc1ccc(S(=O)(=O)N2CCCCC2)cc1)OC(c1ccccc1)(c1ccccc1)c1ccccc1
inactive: [6] 94 % of control | [7] 91 % of control | [8] 89 % of control

CCOC1NC(C)(C)CO1 (centres undefined)
inactive: dose: 100.0 mg/kg/injection, schedule: Q01DX009 (ip), vehicle: saline 101 % of control | [9] 115 % of control | dose: 200.0 mg/kg/injection, schedule: Q01DX009 (ip), vehicle: saline 101 % of control | [10] 97 % of control | dose: 400.0 mg/kg/injection, schedule: Q01DX009 (ip), vehicle: saline 97 % of control | [11] 121 % of control

C[n+]1ccc(N2CCCCC2)c2ccc(Cl)cc21
inactive: dose: 2.0 mg/kg/injection, schedule: Q01DX001 (ip), vehicle: saline 111 % of control

Cc1cc(Oc2nccnc2C)cc(C)c1N(C)C
inactive: [12] 101 % of control | [13] 94 % of control | [14] 94 % of control

C(=N\N=c1\[nH][nH]/c(=N/N=C/c2ccc(-c3ccccc3)cc2)c2ccccc12)/c1ccc(-c2ccccc2)cc1
inactive: dose: 50.0 mg/kg/injection, schedule: Q01DX001 (ip), vehicle: saline 110 % of control | [15] 98 % of control | [16] 95 % of control | [17] 98 % of control

O=c1cc(Nc2ccccc2Cl)[nH]c(=O)[nH]1
inactive: [18] 104 % of control | [19] 98 % of control | [20] 95 % of control

C=CCc1ccc(OC(=O)NC(C)C)c(OC)c1
inactive: dose: 100.0 mg/kg/injection, schedule: Q01DX001 (ip), vehicle: Klucel (hydroxypropylcellulose) (HPC) 89 % of control | dose: 100.0 mg/kg/injection, schedule: Q01DX009 (ip), vehicle: Klucel (hydroxypropylcellulose) (HPC) 97 % of control and 88 % of control | dose: 100.0 mg/kg/injection, schedule: Q04DX002 (ip), vehicle: Klucel (hydroxypropylcellulose) (HPC) 98 % of control and 100 % of control | [12] 93 % of control | dose: 200.0 mg/kg/injection, schedule: Q01DX001 (ip), vehicle: Klucel (hydroxypropylcellulose) (HPC) 101 % of control | dose: 200.0 mg/kg/injection, schedule: Q01DX009 (ip), vehicle: Klucel (hydroxypropylcellulose) (HPC) 111 % of control and 91 % of control | dose: 200.0 mg/kg/injection, schedule: Q04DX002 (ip), vehicle: Klucel (hydroxypropylcellulose) (HPC) 98 % of control and 112 % of control | [13] 97 % of control | dose: 400.0 mg/kg/injection, schedule: Q01DX001 (ip), vehicle: Klucel (hydroxypropylcellulose) (HPC) 100 % of control | dose: 400.0 mg/kg/injection, schedule: Q01DX009 (ip), vehicle: Klucel (hydroxypropylcellulose) (HPC) 88 % of control | dose: 400.0 mg/kg/injection, schedule: Q04DX002 (ip), vehicle: Klucel (hydroxypropylcellulose) (HPC) 112 % of control and 119 % of control | [14] 101 % of control

CC(C)(C)n1cc(C(=O)c2ccccc2)cc1-c1ccccc1
inactive: [4] 91 % of control | [5] 91 % of control | [21] 87 % of control

Cc1c2ccnc(-c3ccccc3)c2cc2c1[nH]c1ccccc12
inactive: dose: 31.3 mg/kg/injection, schedule: Q01DX Z (ip), vehicle: other 98 % of control | dose: 62.5 mg/kg/injection, schedule: Q01DX Z (ip), vehicle: other 101 % of control | [6] 108 % of control | dose: 125.0 mg/kg/injection, schedule: Q01DX015 (oral), vehicle: carboxymethylcellulose (CMC) 102 % of control | dose: 125.0 mg/kg/injection, schedule: Q01DX Z (ip), vehicle: other 101 % of control | [7] 103 % of control | dose: 250.0 mg/kg/injection, schedule: Q01DX015 (oral), vehicle: carboxymethylcellulose (CMC) 93 % of control | dose: 250.0 mg/kg/injection, schedule: Q01DX Z (ip), vehicle: other 91 % of control | [8] 97 % of control | dose: 500.0 mg/kg/injection, schedule: Q01DX015 (oral), vehicle: carboxymethylcellulose (CMC) 93 % of control

CCN1C(=O)C2C3C=CC(C3)C2C1=O (centres undefined)
inactive: dose: 25.0 mg/kg/injection, schedule: Q04DX003 (ip), vehicle: saline with Tween-80 97 % of control | dose: 50.0 mg/kg/injection, schedule: Q04DX003 (ip), vehicle: saline with Tween-80 104 % of control

COc1c(N)c(C)nc(Cl)c1C#N
inactive: [15] 97 % of control | [16] 103 % of control | [17] 109 % of control

O=C(COc1ccc(Cl)cc1)C1CSc2ccc3ccccc3c21 (centres undefined)
inactive: dose: 100.0 mg/kg/injection, schedule: Q04DX003 (ip), vehicle: saline sonified 88 % of control | dose: 200.0 mg/kg/injection, schedule: Q04DX003 (ip), vehicle: saline sonified 89 % of control | dose: 400.0 mg/kg/injection, schedule: Q04DX003 (ip), vehicle: saline sonified 88 % of control

Cc1ccc(Cl)cc1NC(=O)N(C)C1CCCCC1
inactive: [1] 101 % of control | [4] 94 % of control and 120 % of control | dose: 100.0 mg/kg/injection, schedule: Q04DX002 (ip), vehicle: saline with Tween-80 104 % of control and 106 % of control | [9] 97 % of control | [2] 106 % of control | [5] 96 % of control and 113 % of control | dose: 200.0 mg/kg/injection, schedule: Q04DX002 (ip), vehicle: saline with Tween-80 98 % of control and 109 % of control | [10] 111 % of control | [3] 98 % of control | [21] 100 % of control and 110 % of control | dose: 400.0 mg/kg/injection, schedule: Q04DX002 (ip), vehicle: saline with Tween-80 95 % of control and 112 % of control | [11] 90 % of control

CCO/C=C(\C#N)C(=O)O
inactive: [4] 95 % of control | [18] 98 % of control | [5] 98 % of control | [19] 104 % of control | [21] 102 % of control | [20] 100 % of control

CC(=O)Oc1ccc(CCN=C(c2ccccc2)c2ccccc2)cc1OC(C)=O
inactive: [15] 107 % of control | [16] 104 % of control | [17] 100 % of control

CCC(C)C(NC(=O)C1CSC(C)(C)N1C=O)C(=O)OC (centres undefined)
inactive: [9] 106 % of control | [10] 97 % of control | [11] 103 % of control

C=CCc1ccc2c(C)cc[n+](C)c2c1O
inactive: [15] 91 % of control | [16] 93 % of control
